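1) Cells in 96-well plates. 2) Compound, 48 h, 5 concentrations. 3) Linear interpolation between surrounding doses. 4) Unreached endpoint = highest concentration. TGI marks complete inhibition of growth.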
Key:
Assay in all cases: DTP human tumour cell line panel, 48 h
786-0 renal = test system: 786-0 renal
A498 renal = test system: A498 renal
A549 NSCLC = test system: A549 NSCLC
ACHN renal = test system: ACHN renal
BT-549 breast = test system: BT-549 breast
CAKI-1 renal = test system: CAKI-1 renal
CCRF-CEM leukemia = test system: CCRF-CEM leukemia
COLO 205 colon = test system: COLO 205 colon
DU-145 prostate = test system: DU-145 prostate
EKVX NSCLC = test system: EKVX NSCLC
HCC-2998 colon = test system: HCC-2998 colon
HCT-116 colon = test system: HCT-116 colon
HCT-15 colon = test system: HCT-15 colon
HL-60(TB) leukemia = test system: HL-60(TB) leukemia
HOP-62 NSCLC = test system: HOP-62 NSCLC
HS 578T breast = test system: HS 578T breast
HT29 colon = test system: HT29 colon
IGROV1 ovarian = test system: IGROV1 ovarian
K-562 leukemia = test system: K-562 leukemia
KM12 colon = test system: KM12 colon
LOX IMVI melanoma = test system: LOX IMVI melanoma
M14 melanoma = test system: M14 melanoma
MALME-3M melanoma = test system: MALME-3M melanoma
MCF7 breast = test system: MCF7 breast
MDA-MB-231 breast = test system: MDA-MB-231 breast
MDA-MB-435 = test system: MDA-MB-435
MDA-N = test system: MDA-N
MOLT-4 leukemia = test system: MOLT-4 leukemia
NCI-H226 lung = test system: NCI-H226 lung
NCI-H23 lung = test system: NCI-H23 lung
NCI-H460 lung = test system: NCI-H460 lung
NCI-H522 lung = test system: NCI-H522 lung
NCI/ADR-RES ovarian = test system: NCI/ADR-RES ovarian
OVCAR-3 ovarian = test system: OVCAR-3 ovarian
OVCAR-4 ovarian = test system: OVCAR-4 ovarian
OVCAR-5 ovarian = test system: OVCAR-5 ovarian
OVCAR-8 ovarian = test system: OVCAR-8 ovarian
PC-3 prostate = test system: PC-3 prostate
RPMI-8226 leukemia = test system: RPMI-8226 leukemia
RXF 393 renal = test system: RXF 393 renal
SF-268 CNS = test system: SF-268 CNS
SF-295 CNS = test system: SF-295 CNS
SF-539 CNS = test system: SF-539 CNS
SK-MEL-2 melanoma = test system: SK-MEL-2 melanoma
SK-MEL-28 melanoma = test system: SK-MEL-28 melanoma
SK-MEL-5 melanoma = test system: SK-MEL-5 melanoma
SK-OV-3 ovarian = test system: SK-OV-3 ovarian
SN12C renal = test system: SN12C renal
SNB-19 CNS = test system: SNB-19 CNS
SNB-75 CNS = test system: SNB-75 CNS
SW-620 colon = test system: SW-620 colon
T-47D breast = test system: T-47D breast
TK-10 renal = test system: TK-10 renal
U251 CNS = test system: U251 CNS
UACC-257 melanoma = test system: UACC-257 melanoma
UACC-62 melanoma = test system: UACC-62 melanoma
UO-31 renal = test system: UO-31 renal

## CC(C)(CN1CCCCC1)C(/C=C/c1ccc(Cl)c(Cl)c1)=N\NC(=O)N/N=C(/C=C/c1ccc(Cl)c(Cl)c1)C(C)(C)CN1CCCCC1
786-0 renal
  TGI: 2.8 µM
A498 renal
  TGI: 3.11 µM
A549 NSCLC
  TGI: 3.3 µM
ACHN renal
  TGI: 3.37 µM
BT-549 breast
  TGI: > 10 µM
CAKI-1 renal
  TGI: 3.16 µM
CCRF-CEM leukemia
  TGI: 3.45 µM
COLO 205 colon
  TGI: 3.19 µM
DU-145 prostate
  TGI: 3.33 µM
EKVX NSCLC
  TGI: 3.06 µM
HCC-2998 colon
  TGI: 3.12 µM
HCT-116 colon
  TGI: 2.11 µM
HCT-15 colon
  TGI: 2.56 µM
HL-60(TB) leukemia
  TGI: 3.25 µM
HOP-62 NSCLC
  TGI: 3.32 µM
HS 578T breast
  TGI: 3.39 µM
HT29 colon
  TGI: 1.25 µM
IGROV1 ovarian
  TGI: 3.64 µM
K-562 leukemia
  TGI: 0.876 µM
KM12 colon
  TGI: 3.08 µM
LOX IMVI melanoma
  TGI: 2.5 µM
M14 melanoma
  TGI: 1.32 µM
MALME-3M melanoma
  TGI: 2.95 µM
MCF7 breast
  TGI: 3.09 µM
MDA-MB-231 breast
  TGI: 3.71 µM
MDA-MB-435
  TGI: 2.57 µM
MDA-N
  TGI: 2.75 µM
MOLT-4 leukemia
  TGI: 8.74 µM
NCI-H226 lung
  TGI: 4.1 µM
NCI-H23 lung
  TGI: 3.4 µM
NCI-H460 lung
  TGI: 2.77 µM
NCI-H522 lung
  TGI: 3.56 µM
NCI/ADR-RES ovarian
  TGI: 3.32 µM
OVCAR-3 ovarian
  TGI: 2.91 µM
OVCAR-4 ovarian
  TGI: 3.19 µM
OVCAR-5 ovarian
  TGI: 2.97 µM
OVCAR-8 ovarian
  TGI: 3.38 µM
PC-3 prostate
  TGI: > 10 µM
RPMI-8226 leukemia
  TGI: 9 µM
RXF 393 renal
  TGI: 1.99 µM
SF-268 CNS
  TGI: 3.15 µM
SF-295 CNS
  TGI: 3.07 µM
SF-539 CNS
  TGI: 3.25 µM
SK-MEL-2 melanoma
  TGI: > 10 µM
SK-MEL-28 melanoma
  TGI: 3.16 µM
SK-MEL-5 melanoma
  TGI: 3.5 µM
SK-OV-3 ovarian
  TGI: 3.33 µM
SN12C renal
  TGI: 3.24 µM
SNB-19 CNS
  TGI: 3.22 µM
SNB-75 CNS
  TGI: 3.12 µM
SW-620 colon
  TGI: 3.13 µM
T-47D breast
  TGI: 4.1 µM
TK-10 renal
  TGI: 3.08 µM
U251 CNS
  TGI: 3.13 µM
UACC-257 melanoma
  TGI: 3.08 µM
UACC-62 melanoma
  TGI: 3.4 µM
UO-31 renal
  TGI: 5.56 µM

Source: PubChem BioAssay (NCI)
